We go through 18 molecules from patent US20230322722A1, “MODULATORS OF MYC FAMILY PROTO-ONCOGENE PROTEIN” (Nalo Therapeutics, priority 2020, published 2023).

Structures are written as SMILES.

For one experiment, the target named is T1, MycC protein (Homo sapiens, UniProt P01106).
T1 construct: either 2×10^6 of L-363 (human leukemia cell line) or SKNBE2 (neuroblastoma cell line) cells; endogenous in cells; host or cells: L-363 / L363 human leukemia cells
As to the kind of experiment: Degradation of MycC protein, Western blot, L-363 cells (Example 160). The following applies: for inhibition at 2 µM: 6 h. The class given is cell-based. As for the experimental part:
(§1) In a T150 flask was plated either 2×10^6 of L-363 (human leukemia cell line) or SKNBE2 (neuroblastoma cell line) cells in a total of 30 mL containing Roswell Park Memorial Institute (RPMI) 1640 Medium (Thermo Fisher, Cat. #11875-085), 10% Fetal Bovine Serum (FBS, Thermo Fisher: Cat. #10437-028), 1% Penicillin/streptomycin (Thermo Fisher: Cat. #10378016), and 1% Amophotericin B (Thermo Fisher, Cat. #15290026). The cells were split every 72 hours by reseeding the L-363 or SKNBE2 cells, and the passage number was noted. It is noteworthy that cell cultures that were above 40 passages were not used, and most experiments were done with cells of less than 30 passages.
(§2) In a 6-well cell culture plate, a total of 3 mL of either 1×10^6 cells/mL of L-363 or SKNBE2 cells were seeded, resulting in a total of 3×10^6 cells per well. To each well containing 3 mL of either L-363 or SKNBE2 cell line was added 6 uL of MycN modulating compound (1 mM) and the resulting plate was shaken from left to right, and not swirled. After 6 hours, the cells were placed in a 15 mL falcon tube and spun at 500 Gs at 4° C. in a swinging bucket centrifuge. The medium was then carefully removed without disturbing the pellet. The pellet was then washed with 3 mLs of chilled phosphate buffered saline (PBS) and subjected to the spin cycle. PBS was then removed and the pellet was lysed in 200 uL of radioimmunoprecipitation (RIPA) lysis buffer (Thermo Fisher: Cat. #899000) that is supplemented with protease and phosphatase inhibitors (Thermo Fisher: Cat. #A32959). The cell lysate was then subjected to spinning in a centrifuge for 10 minutes at 13000 G at 4° C. The supernatant was then carefully transferred to a fresh eppendorf tube without disturbing the pellet (˜180 uL). The protein concentration of the cell lysate was then determined by using a bicinchoninic acid (BCA assay) according to manufacturer's protocol (Thermo Fisher: Cat. #23227).
(§3) Cell lysate, approximately 25 ug-30 ug, was loaded per well in a 4-20% polyacrylamide gel (Biorad. Cat. #5671094). After running the dye front off of the gel, the gel was transferred to a nitrocellulose membrane (Biorad: Cat. #1704159) using the transblot turbo system (Biorad: Cat. #1704150) according to manufacturer's protocol. After transferring for 30 minutes, the membrane was blocked with 5% BSA for 1 hour at room temperature. The BSA was then washed off and the primary antibody of choice (1:500) was added, and the membrane was incubated with the primary antibody at 4° C. for overnight. The next morning, the primary antibody was removed and the membrane was washed with 1×-TBST for 10 minutes and repeated three more times. Following the last wash, a secondary antibody (Molecular Devices. Cat. #R8209 or R8208) was added at 1:5000 dilution and incubated for 1 hour at room temperature. Following the incubation with the secondary antibody, the membrane was washed with 1×-TBST for 10 minutes and repeated three more times. Following the last wash, the membrane was washed with de-ionized water twice and dried for at least two hours. Once the membrane is completely dry, the Molecular Devices Spectra Max western system was used to observe the bands. The western image was saved and the band density was measured with ImageJ software.
On the technique in general: A western blot detects proteins with antibodies after separation by electrophoresis.

Another experiment has as its target T2, MycN protein (Homo sapiens, UniProt P04198).
T2 construct: either 2×10^6 of L-363 (human leukemia cell line) or SKNBE2 (neuroblastoma cell line) cells; endogenous in cells; host or cells: SKNBE2 / SK-N-BE(2) neuroblastoma cells
T2 sequence (P04198 1-464): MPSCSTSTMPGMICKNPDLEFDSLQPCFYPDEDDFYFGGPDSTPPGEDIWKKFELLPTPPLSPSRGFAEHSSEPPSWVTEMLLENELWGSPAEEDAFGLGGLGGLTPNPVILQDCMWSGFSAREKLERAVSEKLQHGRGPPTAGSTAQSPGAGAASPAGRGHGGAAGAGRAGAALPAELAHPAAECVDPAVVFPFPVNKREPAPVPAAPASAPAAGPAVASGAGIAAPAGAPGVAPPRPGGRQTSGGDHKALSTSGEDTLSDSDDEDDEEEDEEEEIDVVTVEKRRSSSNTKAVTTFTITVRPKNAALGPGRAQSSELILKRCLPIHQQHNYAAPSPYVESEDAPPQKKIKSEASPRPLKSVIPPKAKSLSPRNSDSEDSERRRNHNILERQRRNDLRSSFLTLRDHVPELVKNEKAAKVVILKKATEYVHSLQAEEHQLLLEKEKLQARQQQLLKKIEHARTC
As to the kind of experiment: Degradation of MycN protein, Western blot, SKNBE2 cells (Example 160). The class given is cell-based. Here is the method:
as §1, §2, §3

Usually inhibition stands for the change of the read-out against control, counted positive when it falls. The low end stands for a response near the control, the high end for a response far below the control.

T1 sequence (P01106 whole entry): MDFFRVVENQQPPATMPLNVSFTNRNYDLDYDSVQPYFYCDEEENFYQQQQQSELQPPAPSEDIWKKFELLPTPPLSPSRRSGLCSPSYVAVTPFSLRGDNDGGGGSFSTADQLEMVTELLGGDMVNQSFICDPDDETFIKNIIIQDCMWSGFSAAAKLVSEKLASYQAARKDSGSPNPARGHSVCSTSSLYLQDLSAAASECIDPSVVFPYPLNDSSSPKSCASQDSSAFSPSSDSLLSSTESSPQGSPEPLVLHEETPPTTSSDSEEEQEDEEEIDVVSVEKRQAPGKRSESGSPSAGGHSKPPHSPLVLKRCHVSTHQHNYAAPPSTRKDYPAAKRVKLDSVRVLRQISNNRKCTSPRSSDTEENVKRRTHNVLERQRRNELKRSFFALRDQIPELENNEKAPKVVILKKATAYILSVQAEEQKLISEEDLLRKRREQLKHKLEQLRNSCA

Consider `CN(c1nccc(Nc2cc(C3CC3)[nH]n2)n1)[C@H]1CC[C@H](NC(=O)C2CCCC(C(F)(F)F)C2)CC1` (stereo partly drawn) [113 F1], for which the inhibition at 2 µM on MycC protein was in the range of 50 to 79%. For the same molecule, at MycN protein, the “% Degradation of MycN (SKNBE2) 6 h, 2 μM” value is reported as “* (degradation <20%)”.
With `CN(c1nccc(Nc2cc(C3CC3)[nH]n2)n1)[C@H]1CC[C@H](NC(=O)C2CCCC(C(F)(F)F)C2)CC1` (stereo partly drawn) [113 F2], the “% Degradation of MycC (L-363) 6 h, 2 μM” value at MycC protein is “*** (degradation 50-79%)”. The “% Degradation of MycN (SKNBE2) 6 h, 2 μM” value on MycN protein was “*** (degradation 50-79%)”.
Take `CN(c1nccc(Nc2cc(C3CC3)[nH]n2)n1)C1CCN(CC(=O)Nc2cccc(C(F)(F)F)c2)CC1` [Compound 1, 2-(4-((4-((5-cyclopropyl-1H-pyrazol-3-yl)amino)pyrimidin-2-yl)(methyl)amino)piperidin-1-yl)-N-(3-(trifluoromethyl)phenyl)acetamide]: the figures for the inhibition at 2 µM on MycC protein and against MycN protein (6 h) were 80 to 100% and 50 to 79%, respectively.
The corresponding values for `CN(c1nccc(Nc2cc(C3CC3)[nH]n2)n1)C1CCN(CC(=O)NC2Cc3ccc(C#N)cc3C2)CC1` (stereo not drawn) [Compound 2, N-(5-cyano-2,3-dihydro-1H-inden-2-yl)-2-(4-((4-((5-cyclopropyl-1H-pyrazol-3-yl)amino)pyrimidin-2-yl)(methyl)amino)piperidin-1-yl)acetamide] are 80 to 100% and 80 to 100%.
With `CN(c1nccc(Nc2cc(C3CC3)[nH]n2)n1)C1CCN(CC(=O)Nc2cccc(S(C)(=O)=O)c2)CC1` [Compound 3, 2-(4-((4-((5-cyclopropyl-1H-pyrazol-3-yl)amino)pyrimidin-2-yl)(methyl)amino)piperidin-1-yl)-N-(3-(methylsulfonyl)phenyl)acetamide], the inhibition at 2 µM fell in the range of 80 to 100% against MycC protein and 50 to 79% against MycN protein (SKNBE2, 6 h).
In the same order, the values of `CN(c1cc(C2CC2)[nH]n1)c1ccnc(N(C)C2CCN(CC(=O)Nc3cccc(C(F)(F)F)c3)CC2)n1` [Compound 4, 2-(4-((4-((5-cyclopropyl-1H-pyrazol-3-yl)(methyl)amino)pyrimidin-2-yl)(methyl)amino)piperidin-1-yl)-N-(3-(trifluoromethyl)phenyl)acetamide] are 20 to 49% and below 20%.
Turning to `CS(=O)(=O)c1cccc(NC(=O)CN2CCC(Nc3nccc(Nc4cc(C5CC5)[nH]n4)n3)CC2)c1` [Compound 6, 2-(4-((4-((5-cyclopropyl-1H-pyrazol-3-yl)amino)pyrimidin-2-yl)amino)piperidin-1-yl)-N-(3-(methylsulfonyl)phenyl)acetamide], the inhibition at 2 µM against MycC protein lay within 80 to 100%; at MycN protein (6 h) it was 50 to 79%.
For `CN(c1nccc(Nc2cc(C3CC3)[nH]n2)n1)C1CCN(CC(=O)Nc2cn(C)nn2)CC1` [Compound 8, 2-(4-((4-((5-cyclopropyl-1H-pyrazol-3-yl)amino)pyrimidin-2-yl)(methyl)amino)piperidin-1-yl)-N-(1-methyl-1H-1,2,3-triazol-4-yl)acetamide], the inhibition at 2 µM was in the range of 80 to 100% on MycC protein and 50 to 79% on MycN protein (SKNBE2, 6 h).
On to `CC(C(=O)Nc1cccc(S(C)(=O)=O)c1)N1CCC(N(C)c2nccc(Nc3cc(C4CC4)[nH]n3)n2)CC1` (stereo not drawn) [Compound 9], for which the inhibition at 2 µM at MycC protein and against MycN protein (6 h) was 80 to 100% throughout.
For `CN(c1nccc(Nc2cc(C3CC3)[nH]n2)n1)C1CCN(CC(=O)Nc2cn(C3COC3)cn2)CC1` [Compound 10, 2-(4-((4-((5-cyclopropyl-1H-pyrazol-3-yl)amino)pyrimidin-2-yl)(methyl)amino)piperidin-1-yl)-N-(1-(oxetan-3-yl)-1H-imidazol-4-yl)acetamide], the inhibition at 2 µM against MycC protein lay in the range of 80 to 100%; against MycN protein (SKNBE2, 6 h), 50 to 79%.
In the same order, the values of `CN(c1nccc(Nc2cc(C3CC3)[nH]n2)n1)[C@H]1CC[C@H](NC(=O)N2Cc3cc(F)c(F)cc3C2)CC1` [Compound 12, N-((1R,4R)-4-((4-((5-cyclopropyl-1H-pyrazol-3-yl)amino)pyrimidin-2-yl)(methyl)amino)cyclohexyl)-5,6-difluoroisoindoline-2-carboxamide] are 80 to 100% and 50 to 79%.
On to `CN(c1nccc(Nc2cc(C3CC3)[nH]n2)n1)[C@H]1CC[C@H](NC(=O)N2CCc3cc(F)c(F)cc3C2)CC1` [Compound 13, N-((1R,4R)-4-((4-((5-cyclopropyl-1H-pyrazol-3-yl)amino)pyrimidin-2-yl)(methyl)amino)cyclohexyl)-6,7-difluoro-3,4-dihydroisoquinoline-2(1H)-carboxamide], for which the inhibition at 2 µM is 80 to 100% against MycC protein and 50 to 79% at MycN protein (SKNBE2, 6 h).
The corresponding values for `CN(c1nccc(Nc2cc(C3CC3)[nH]n2)n1)[C@H]1CC[C@H](NC(=O)N2CCn3nc(C(F)(F)F)nc3C2)CC1` [Compound 14, N-((1R,4R)-4-((4-((5-cyclopropyl-1H-pyrazol-3-yl)amino)pyrimidin-2-yl)(methyl)amino)cyclohexyl)-2-(trifluoromethyl)-5,6-dihydro-[1,2,4]triazolo[1,5-a]pyrazine-7(8H)-carboxamide] are 80 to 100% and 80 to 100%.
In the same order, the values of `Cc1cnc(CC(=O)NC2CCC(N(C)c3nccc(Nc4cc(C5CC5)[nH]n4)n3)CC2)cn1` [Compound 108, N-((1R,4R)-4-((4-((5-cyclopropyl-1H-pyrazol-3-yl)amino)pyrimidin-2-yl)(methyl)amino)cyclohexyl)-2-(5-methylpyrazin-2-yl)acetamide] are 80 to 100% and 50 to 79%.
Consider `CN(c1cc(C2CC2)[nH]n1)c1ccnc(N(C)[C@H]2CC[C@H](NC(=O)C3CCc4ccccc43)CC2)n1` (stereo partly drawn) [Compound 109, N-((1R,4R)-4-((4-((5-cyclopropyl-1H-pyrazol-3-yl)(methyl)amino)pyrimidin-2-yl)(methyl)amino)cyclohexyl)-2,3-dihydro-1H-indene-1-carboxamide], for which the inhibition at 2 µM against MycC protein was 50 to 79%; at MycN protein (SKNBE2, 6 h) it was below 20%.
In the case of `CN(c1cc(C2CC2)[nH]n1)c1ccnc(N(C)[C@H]2CC[C@H](NC(=O)C3Cc4ccccc4C3)CC2)n1` [Compound 110, N-((1R,4R)-4-((4-((5-cyclopropyl-1H-pyrazol-3-yl)(methyl)amino)pyrimidin-2-yl)(methyl)amino)cyclohexyl)-2,3-dihydro-1H-indene-2-carboxamide], the inhibition at 2 µM on MycC protein is 20 to 49%; at MycN protein (SKNBE2, 6 h), below 20%.
In the same order, the values of `Cn1nc(Nc2ccnc(N(C)[C@H]3CC[C@H](NC(=O)C4Cc5ccccc5C4)CC3)n2)cc1C1CC1` [Compound 111, N-((1R,4R)-4-((4-((5-cyclopropyl-1-methyl-1H-pyrazol-3-yl)amino)pyrimidin-2-yl)(methyl)amino)cyclohexyl)-2,3-dihydro-1H-indene-2-carboxamide] are below 20% and 20 to 49%.
In the same order, the values of `CN(c1nccc(Nc2cc(C3CC3)[nH]n2)n1)[C@H]1CC[C@H](NC(=O)C2CCc3ccccc32)CC1` (stereo partly drawn) [Compound 112, N-((1R,4R)-4-((4-((5-cyclopropyl-1H-pyrazol-3-yl)amino)pyrimidin-2-yl)(methyl)amino)cyclohexyl)-2,3-dihydro-1H-indene-1-carboxamide] are 80 to 100% and 50 to 79%.
